The source of these data is ChEMBL document CHEMBL1201862, “PubChem BioAssay data set” (2004).

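Each compound was tested at five concentrations against cells in 96-well plates for 48 hours. GI50: concentration for 50% inhibition of growth.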 Active and inactive are the calls of the source. No stated cut-off is given here; in the data, active = GI50 up to about 1.1 µM and inactive = higher.

Test systems include 786-0; BT-549; DMS-114; DMS-273; HOP-18; KM-20L2; LXFL 529; M19-MEL; RXF 631.
Assay in all cases: NCI tumour cell line growth inhibition, 48 h

Turning to `COc1cccc(/C=C/C(=O)N2CC(CCl)c3c2cc(N)c2ccccc32)c1` (configuration not stated), the GI50 was 0.00106 µM (active) with 786-0 and 0.0122 µM (active) with BT-549.
As for `CCOC(=O)C(=O)Nc1cccc(C)c1C`, the GI50 in the assay with DMS-114, in the assay with DMS-273, in the assay with HOP-18, in the assay on KM-20L2, in the assay with LXFL 529 and with M19-MEL was > 100 µM (inactive) each time.
As for `CN(C)/N=N/c1ccc([N+](=O)[O-])cc1C(N)=O`, the GI50 with DMS-114, with DMS-273, in the assay with HOP-18, with KM-20L2 and in the assay with M19-MEL was > 100 µM (inactive) each time.
For the compound `COc1cccc(C2C(C(=O)O)=C(CO)Oc3cc4c(cc32)OCO4)c1` (configuration not stated), the GI50 in the assay on DMS-114, with HOP-18, in the assay with KM-20L2, with LXFL 529 and in the assay with M19-MEL was > 100 µM (inactive) in each case.
For the compound `CCN1C(=O)c2cc(OC)c(OC)cc2C(=O)C12OC(=O)c1cc3c(cc12)OCO3` (configuration not stated), the GI50 was 22.4 µM (inactive) in the assay with 786-0 and > 100 µM (inactive) in the assay on BT-549.
With `Nc1nnc(CCC(=O)Nc2cc(Cl)ccc2Cl)n1N`, the GI50 in the assay with DMS-114, in the assay with DMS-273, in the assay on HOP-18, with KM-20L2, in the assay on LXFL 529 and with M19-MEL was > 100 µM (inactive) throughout. Moreover, the GI50 in the assay on RXF 631 was > 100 µM (inactive).
On to `CCOc1c(/N=N/c2ccccc2Cl)c(-c2ccccc2)nn1C(=S)S`, for which the GI50 was 37.4 µM (inactive) in the assay with 786-0 and 35.9 µM (inactive) with BT-549.
As to `CC(C)(Br)C1(O)CCCN1C(=O)c1ccccc1` (configuration not stated), the GI50 in the assay with DMS-273, in the assay with HOP-18, in the assay with KM-20L2, in the assay on LXFL 529, with M19-MEL and with RXF 631 was > 100 µM (inactive) in each case.
For the compound `CC(C)(C)C(=O)OCC1OC(N=[N+]=[N-])C(OC(=O)C(C)(C)C)C(OC(=O)C(C)(C)C)C1OC(=O)C(C)(C)C` (configuration not stated), the GI50 in the assay with DMS-114, in the assay with DMS-273, in the assay with KM-20L2 and in the assay on LXFL 529 was > 100 µM (inactive) throughout.
In the case of `O=C(Nc1cccc2ccccc12)Nn1cnnc1`, the GI50 with BT-549 is > 100 µM (inactive).
With `COC[C@@H](Cc1ccc(OC)c(OC)c1)[C@@H](COC)Cc1ccc(OC)c(OC)c1`, the GI50 in the assay with DMS-114 was 56.5 µM (inactive); with DMS-273, 76.6 µM (inactive); in the assay on HOP-18 it was > 100 µM (inactive); in the assay on KM-20L2, > 100 µM (inactive); with LXFL 529, 81.7 µM (inactive); in the assay on M19-MEL, > 100 µM (inactive).
Turning to `O=C(O)/C(=C\c1ccncc1)c1cccc2ccccc12`, the GI50 with 786-0 and in the assay with BT-549 was > 100 µM (inactive) throughout.
On to `C=COCCCOc1ccccc1`, for which the GI50 in the assay on DMS-114 is > 100 µM (inactive); with DMS-273, > 100 µM (inactive); in the assay on HOP-18, 1.53 µM (inactive); in the assay on KM-20L2, > 100 µM (inactive); in the assay on LXFL 529 it was > 100 µM (inactive); in the assay on M19-MEL, > 100 µM (inactive).
Consider `CCc1c(-c2ccccc2)[nH]c2ccccc2c1=O`, for which the GI50 with BT-549 is 59.4 µM (inactive).
On to `CC(=O)/N=C1/N(/C=C2\C(=O)Oc3ccccc3C2=O)C(=O)/C(=C/c2ccc(NC(C)=O)cc2)N1C`, for which, in the assay on 786-0, the GI50 was > 100 µM (inactive).
With `O=C(Nc1cccc(C(=O)NCCCO)c1)/C(=C/c1ccccc1)NC(=O)c1ccccc1`, the GI50 in the assay on 786-0 and in the assay with BT-549 was > 100 µM (inactive) each time.
Consider `CC(C)c1cccc(C(C)C)c1OS(=O)(=O)NC(=O)OC(C(F)(F)F)C(F)(F)F`, for which the GI50 with BT-549 is 67.8 µM (inactive).
Consider `CN(NC(=O)c1cccs1)C1=NCCCN1`, for which the GI50 with 786-0 and in the assay on BT-549 was > 100 µM (inactive) throughout.
Consider `C=CS(=O)(=O)CCN1CC1`, for which the GI50 with 786-0 and in the assay with BT-549 was > 10 µM (inactive) in each case.
Regarding `Brc1cccc(Nc2ncnc3sc4c(c23)CCC(Nc2cccc(Br)c2)C4)c1` (configuration not stated), the GI50 with 786-0 and with BT-549 was > 100 µM (inactive) throughout.
Consider `Nc1ncc2c(n1)-c1ccccc1OC2N1CCCC1` (configuration not stated), for which, in the assay with 786-0, the GI50 was > 100 µM (inactive).
Take `O=C(NNC(=O)c1nsc2ccccc12)c1ccc(Cl)cc1`: the GI50 is > 10 µM (inactive) with DMS-114; 8.11 µM (inactive) with DMS-273; 10.2 µM (inactive) with HOP-18; 19.8 µM (inactive) in the assay on KM-20L2; 19.7 µM (inactive) in the assay on LXFL 529; 20 µM (inactive) in the assay on M19-MEL.
